Data published in US9334289B2, “Cephem compound having catechol or pseudo-catechol structure” (SHIONOGI & CO., LTD., priority 2011, dated 2016).
Converted amounts (≈) assume the structure as drawn.

What was measured:
Assay in all cases: MIC, CLSI broth microdilution, Test Example 2
Assay type in all cases: cell-based
P. aeruginosa SR01332 = settings: Pseudomonas aeruginosa, SR01332; VIM-11 MBL producing strain (carbapenem resistance strain); cation-adjusted Iso-Sensitest broth containing human Apo-transferrin; 5×10^5 cfu/mL; read-out: Minimum Inhibitory Concentration (MIC) P. aeruginosa SR01332
Procedure: (§1) Measurement of Minimum Inhibitory Concentration (MIC: μg/mL) was conducted according to CLSI (Clinical and Laboratory Standards Institute) method, and the amount of bacteria for inoculation was 5×10^5 cfu/mL, and cation-adjusted Iso-Sensitest broth containing human Apo-transferrin was used as a test medium, and the experiment was conducted using broth microdilution method.

P. aeruginosa SR01335 = settings: Pseudomonas aeruginosa, SR01335; VIM-1 like MBL producing strain (carbapenem resistance strain); cation-adjusted Iso-Sensitest broth containing human Apo-transferrin; 5×10^5 cfu/mL; read-out: Minimum Inhibitory Concentration (MIC) P. aeruginosa SR01335
Procedure: as §1

E. coli ATCCBAA-200 = settings: Escherichia coli, ATCCBAA200; SHV-4 ESBL producing strain; cation-adjusted Iso-Sensitest broth containing human Apo-transferrin; 5×10^5 cfu/mL; read-out: Minimum Inhibitory Concentration (MIC) E. coli ATCC BAA-200
Procedure: as §1

A. baumannii SR01331 = settings: Acinetobacter baumannii, SR01331; PER-1, OXA-23.51 ESBL- & OXA-type carbapenemase producing strain; cation-adjusted Iso-Sensitest broth containing human Apo-transferrin; 5×10^5 cfu/mL; read-out: Minimum Inhibitory Concentration (MIC) A. baumannii SR01331
Procedure: as §1

K. pneumoniae ATCC700603 = settings: Klebsiella pneumoniae, ATCC700603; SHV18 ESBL producing strain; cation-adjusted Iso-Sensitest broth containing human Apo-transferrin; 5×10^5 cfu/mL; read-out: Minimum Inhibitory Concentration (MIC) K. pneumoniae ATCC 700603
Procedure: as §1

E. coli ATCCBAA-196 = settings: Escherichia coli, ATCCBAA196; TEM-10 ESBL producing strain; cation-adjusted Iso-Sensitest broth containing human Apo-transferrin; 5×10^5 cfu/mL; read-out: Minimum Inhibitory Concentration (MIC) E. coli ATCC BAA-196
Procedure: as §1

E. cloacae NCTC13464 = settings: Enterobacter cloacae, NCTC13464; CTX-M group 9 ESBL producing strain; cation-adjusted Iso-Sensitest broth containing human Apo-transferrin; 5×10^5 cfu/mL; read-out: Minimum Inhibitory Concentration (MIC) E. cloacae NCTC 13464
Procedure: as §1

E. coli SR01337 = settings: Escherichia coli, SR01337; TEM-1 ESBL producing strain; cation-adjusted Iso-Sensitest broth containing human Apo-transferrin; 5×10^5 cfu/mL; read-out: Minimum Inhibitory Concentration (MIC) E. coli SR01337
Procedure: as §1

MIC (P. aeruginosa SR01332) [µg/mL]	MIC (P. aeruginosa SR01335) [µg/mL]	MIC (E. coli ATCCBAA-200) [µg/mL]	MIC (A. baumannii SR01331) [µg/mL]	MIC (K. pneumoniae ATCC700603) [µg/mL]	MIC (E. coli ATCCBAA-196) [µg/mL]	MIC (E. cloacae NCTC13464) [µg/mL]	MIC (E. coli SR01337) [µg/mL]	Compound
1	1	1	0.5	1	0.5	0.25	≤ 0.031	CC(C)(O/N=C(\C(=O)N[C@@H]1C(=O)N2C(c3nnn[n-]3)=C(C[n+]3ccc(CNC(=O)c4ccc(O)c(O)c4Cl)cc3)CS[C@H]12)c1nsc(N)n1)C(=O)[O-].[Na+] [Compound I-114]
2	1	1	0.5	0.5	1	1	≤ 0.031	CC(C)(O/N=C(\C(=O)N[C@@H]1C(=O)N2C(c3nnn[nH]3)=C(C[n+]3cccc4c3CCCN4C(=O)c3ccc(O)c(O)c3Cl)CS[C@H]12)c1nsc(N)n1)C(=O)O.[Na+] [Compound I-115]
2	1	1	0.25	0.25	0.5	≤ 0.031	≤ 0.031	CC(C)(O/N=C(\C(=O)N[C@@H]1C(=O)N2C(c3nnn[n-]3)=C(C[n+]3ccc(NC(=O)c4ccc(O)c(O)c4Cl)cc3)CS[C@H]12)c1nsc(N)n1)C(=O)[O-].[Na+] [Compound I-116]
8 (≈ 10.1 µM)	1 (≈ 1.26 µM)	0.25 (≈ 0.316 µM)	0.25 (≈ 0.316 µM)	0.063 (≈ 0.0796 µM)	0.25 (≈ 0.316 µM)	0.25 (≈ 0.316 µM)	≤ 0.031	CC(C)(O/N=C(\C(=O)N[C@@H]1C(=O)N2C(c3nnn[nH]3)=C(C[N+]3(CCNC(=O)c4ccc(O)c(O)c4Cl)CCCCC3)CS[C@H]12)c1nsc(N)n1)C(=O)[O-] [Compound I-118]
4 (≈ 5.15 µM)	2 (≈ 2.57 µM)	0.5 (≈ 0.643 µM)	0.5 (≈ 0.643 µM)	0.25 (≈ 0.322 µM)	0.5 (≈ 0.643 µM)	0.125 (≈ 0.161 µM)	≤ 0.031	CC(C)(O/N=C(\C(=O)N[C@@H]1C(=O)N2C(c3nnn[nH]3)=C(C[N+]3(CCNC(=O)c4cc(O)c(O)c(Cl)c4)CCCC3)CS[C@H]12)c1nsc(N)n1)C(=O)[O-] [Compound I-119]
1	0.5	≤ 0.031	0.125	≤ 0.031	≤ 0.031	0.063	≤ 0.031	Cc1cc2cc(O)c(O)cc2c[n+]1CC1=C(c2nnn[n-]2)N2C(=O)[C@@H](NC(=O)/C(=N\OC(C)(C)C(=O)[O-])c3csc(N)n3)[C@H]2SC1.[Na+] [Compound I-121]
4 (≈ 5.07 µM)	1 (≈ 1.27 µM)	0.25 (≈ 0.317 µM)	0.25 (≈ 0.317 µM)	0.125 (≈ 0.158 µM)	0.125 (≈ 0.158 µM)	0.063 (≈ 0.0798 µM)	≤ 0.031	CC(C)(O/N=C(\C(=O)N[C@@H]1C(=O)N2C(c3nnn[nH]3)=C(C[N+]34CCCC3CN(C(=O)c3cc(O)c(O)c(Cl)c3)CC4)CS[C@H]12)c1nsc(N)n1)C(=O)[O-] (stereo partly shown) [Compound I-122]

Compound	MIC (P. aeruginosa SR01332) [µg/mL]	MIC (P. aeruginosa SR01335) [µg/mL]	MIC (E. coli ATCCBAA-200) [µg/mL]	MIC (A. baumannii SR01331) [µg/mL]	MIC (K. pneumoniae ATCC700603) [µg/mL]	MIC (E. coli ATCCBAA-196) [µg/mL]	MIC (E. cloacae NCTC13464) [µg/mL]	MIC (E. coli SR01337) [µg/mL]
CC(C)(O/N=C(\C(=O)N[C@@H]1C(=O)N2C(c3nnn[nH]3)=C(C[N+]3(C)[C@@H]4CC[C@H]3C[C@@H](NC(=O)c3cc(O)c(O)c(F)c3)C4)CS[C@H]12)c1nsc(N)n1)C(=O)O.[Na+] (stereo partly shown) [Compound I-117]	4	2	1	0.5	0.25	1	0.5	0.063
